The source of these data is patent US11466029B2, “Compounds useful to treat influenza virus infections” (Nanjing Zhengxiang Pharmaceuticals Co., Ltd., priority 2019, dated 2022).

The conditions of data set [1]: in vivo; cited from earlier work.
A further data set can be described thus: Pharmacokinetics in Rats. The format is in vivo. Details: AUClast: unit not given here. The following applies: PO 3 mg/kg, non-fasted male SD rats, plasma B-1. The procedure: C-1 was administered to 3 non-fasted male SD rats via oral gavage at 3 mg/kg.
Data set [2] in a line: Toxicity study, oral gavage once daily for 7 days. The format is in vivo, Sprague Dawley (SD) rats. The procedure:
A toxicity study of C-1 was conducted in Sprague Dawley (SD) rats. C-1 at 20, 100 and 500 mg/kg or vehicle (0.5% w/v CMC-Na and 0.1% v/v Tween-80 in DI water) was administered via oral gavage to Sprague Dawley rats (7-9 weeks, about 250-300 grams each for males and about 200-250 grams each for females) once daily for 7 days. 8 females and 8 males in each dose group were used.

The conditions of data set [3]: for AUClast: PO 1 mg/kg, plasma B-1.
Experimental: B-1 was administered to male cynomolgus monkeys (2-5 years old, 2-5 kg, 3 animals each group) via intravenous (IV) bolus at 0.25 mg/kg and by oral gavage (PO) at 1 mg/kg; Animals in the IV group had free access to food and water (non-fasted) and animals in the PO group were fasted overnight prior to dosing (fasted). C-1 was administered to male cynomolgus monkeys (fasted or non-fasted, 3 each group) via oral gavage at 1 mg/kg. Blood samples (˜0.5 mL each time point) were collected via the jugular vein into tubes containing potassium ethylenediaminetetraacetic acid (K2EDTA) as the anticoagulant at 0.033, 0.083, 0.25, 0.5, 1, 2, 4, 8 and 24 hours post dose for IV administration and 0.083, 0.25, 0.5, 1, 2, 4, 8 and 24 hours post dose for PO administration. The blood samples were then centrifuged for 10 minutes in a centrifuge refrigerated at 2-8° C. The resultant plasma samples were analyzed using LC/MS/MS to determine concentrations of B-1. Non-compartmental model with WinNonlin (Phoenix™, version 6.1) software was used to calculate pharmacokinetic (PK) parameters.
The conditions of data set [4]: PO 10 mg/kg, male CD-1 mice, plasma B-1.
Experimental: B-1 was administered to male CD-1 mice (4-6 weeks old, 20-30 grams, 3 animals each group) via intravenous (IV) bolus at 1 mg/kg and by oral gavage (PO) at 10 mg/kg. […] All animals had free access to food and water prior to dosing. Blood samples (˜0.03 mL each time point) were collected via the jugular vein into tubes containing sodium heparin as the anticoagulant at 0.033, 0.083, 0.25, 0.5, 1, 2, 4, 8 and 24 hours post dose for IV administration and 0.083, 0.25, 0.5, 1, 2, 4, 8 and 24 hours post dose for PO administration. The blood samples were then centrifuged for 5 minutes in a centrifuge refrigerated at 4° C. The resultant plasma samples were analyzed using LC/MS/MS to determine concentrations of B-1. Non-compartmental model with WinNonlin (Phoenix™, version 8.0) software was used to calculate pharmacokinetic (PK) parameters.
The next data set concerns influenza virus PR/8/34. Details: species or system Balb/c mice. The following applies: in vivo.
The target in data set [5] is Influenza Virus CEN PAn enzyme (UniProt P03433). Type of data set: biochemical. The following applies: read-out: CEN IC50.
For another data set, the system named is IFV A/PR/8/34 (H1N1). In words: microbe, parasite or virus in culture. The format is cell-based. The following applies: Influenza A virus, MDCK, 120 h.
The test system of the next data set is B/Florida/78/2015. The experiment in a line: microbe, parasite or virus in culture. Type of data set: cell-based. The conditions noted are these: Influenza B virus, 120 h.
The subject of the next data set is B/Lee/40. In words: microbe, parasite or virus in culture. Type of data set: cell-based. The conditions noted are these: Influenza B virus, 120 h.
Another data set concerns A/Hongkong/8/68 (H3N2). In words: microbe, parasite or virus in culture. Type of data set: cell-based. The following applies: Influenza A virus, H3N2, MDCK, 120 h.
Another data set concerns IFV A/WSN/33 (H1N1). In words: microbe, parasite or virus in culture. The format is cell-based. The conditions noted are these: Influenza A virus, MDCK, 120 h.
Data set [6] deals with A/California/07/2009 (H1N1)pdm09. In words: microbe, parasite or virus in culture. Type of data set: cell-based. The conditions noted are these: Influenza A virus, H1N1, MDCK, 120 h.
A further data set in a line: in vitro. The conditions noted are these: dog.
Data set [7] can be described thus: Liver microsomal stability. The following applies: rat, liver microsomes.
Data set [8] is described as follows: Liver microsomal stability. The conditions noted are these: dog, liver microsomes.
Data set [9] can be described thus: Liver microsomal stability. The following applies: cynomolgus monkey, liver microsomes.
Data set [10] is described as follows: Liver microsomal stability. The following applies: mouse, liver microsomes.
A short description of data set [11]: Liver microsomal stability. The following applies: human, liver microsomes.
In another data set the test system is A/Weiss/43 (H1N1). The experiment in a line: microbe, parasite or virus in culture. Type of data set: cell-based. The conditions noted are these: Influenza A virus, H1N1, MDCK, 120 h.
[12] abbreviates: B/Florida/78/2015, MDCK cells, 5 days, read-out: EC50.
Where [13] appears, read: B/Lee/40, MDCK cells, 5 days, read-out: EC50.

Read-outs that look alike come from different tables or passages of the source.

Turning to `COC(=O)OCOc1c2n(ccc1=O)N([C@@H]1c3ccccc3SCc3c1ccc(F)c3F)[C@@H]1COCCN1C2=O` [baloxavir marboxil], in data set [1], the oral availability entry is on record as “poor oral availability”.

`COC(=O)OCOc1c2n(ccc1=O)N(C1c3ccccc3[Se]Cc3c1ccc(F)c3F)[C@@H]1COCCN1C2=O` (stereo partly drawn) [Compound C-1]: the AUClast in “Pharmacokinetics in Rats” amounted to 280; in [3] (fasted male cynomolgus monkeys) it was 414; in [3] (non-fasted male cynomolgus monkeys), 400; in [4], 2834. Further, the MTD at 7 days in data set [2] (both sexes, Sprague Dawley, rat, in vivo, oral gavage once daily for 7 days, read-out: maximum tolerated dose (MTD)) is greater than 500 mg/kg/day. Further, the “toxic findings (clinical observation, body weight, food consumption, gross pathology)” value in data set [2] (in words, 20, 100 and 500 mg/kg oral gavage once daily for 7 days) was “No C-1-related toxic findings”. Also, the tolerability entry in [2] (in words, oral gavage once daily for 7 days) is reported as “well tolerated”. In [3] (in words, cynomolgus monkeys, fasted vs non-fasted), the “food effect / impact of feeding condition on oral absorption” value is “did not impact oral absorption”. For the same compound, the “antivirus efficacy in influenza virus PR/8/34 mouse model” value in the data set on influenza virus PR/8/34 was “potent antivirus activity”. Moreover, the “improvement in body weight loss” value with influenza virus PR/8/34 (mouse, po) is “significant dose-dependent improvement”. Moreover, in the data set on influenza virus PR/8/34 (mouse, po), the survival result is on record as “survived throughout the study”. Further, the body weight loss result with influenza virus PR/8/34 (mouse, po, 5 mg/kg) is “minimal”. Moreover, the IC50 in [5] stood at 1550 nM.

Regarding `CCOC(=O)C1=C[C@@H](OC(CC)CC)[C@H](NC(C)=O)[C@@H](N)C1` [oseltamivir, reference compound], in the data set on influenza virus PR/8/34 (mouse, po), the “improvement in body weight loss” value is recorded as “did not result in substantial improvement” and the mice died came out at 60%.

In the case of `O=C1c2c(O)c(=O)ccn2N([C@@H]2c3ccccc3SCc3c2ccc(F)c3F)[C@@H]2COCCN12` [Baloxavir acid, reference compound], in data set [1], the oral availability result is reported as “poor oral availability”. In addition, the EC50 was 0.73 nM with IFV A/PR/8/34 (H1N1); 16 nM in the data set with B/Florida/78/2015 (MDCK); 6.3 nM in the data set with B/Lee/40 (MDCK); 1.7 nM in the data set on A/Hongkong/8/68 (H3N2); 0.44 nM with IFV A/WSN/33 (H1N1); 0.66 nM in [6]. Moreover, the IC50 in data set [5] is 14 nM. For the same compound, the CC50 in “in vitro” was found to be 12 µM.

With `CP(C)(=O)c1cn2c(c(O)c1=O)C(=O)N1CCOCC1N2C1c2ccccc2SCc2c1ccc(F)c2F` (single isomer, unassigned) [Compound E-1b, 12-(7,8-difluoro-6,11-dihydrodibenzo[b,e]thiepin-11-yl)-9-(dimethylphosphoryl)-7-hydroxy-3,4,12,12a-tetrahydro-1H-[1,4]oxazino[3,4-c]pyrido[2,1-f][1,2,4]triazine-6,8-dione], in [5], the IC50 stood at 32 nM.

Consider `O=C1c2c(O)c(=O)ccn2N(C2c3ccccc3[Se]Cc3c2ccc(F)c3F)C2COCCN12` (single isomer, unassigned) [Compound A-1-P1, 12-(7,8-Difluoro-6,11-Dihydrodibenzo[b,e]Selenepin-11-yl)-7-Hydroxy-3,4,12,12a-Tetrahydro-1H-[1,4]Oxazino[3,4-c]Pyrido[2,1-f][1,2,4]Triazine-6,8-Dione], for which the IC50 in [5] worked out at 42 nM.

As to `O=C1c2c(O)c(=O)ccn2N(C2c3ccccc3[Se]Cc3c2ccc(F)c3F)C2COCCN12` (single isomer, unassigned) [Compound A-1-P2, 12-(7,8-Difluoro-6,11-Dihydrodibenzo[b,e]Selenepin-11-yl)-7-Hydroxy-3,4,12,12a-Tetrahydro-1H-[1,4]Oxazino[3,4-c]Pyrido[2,1-f][1,2,4]Triazine-6,8-Dione], the half-life was found to be 173 min in data set [7]; 375 min in data set [8]; 85 min in data set [9]; 286 min in data set [10]; 2.54 days in data set [11]. Besides, the microsomal CLint was determined as 8.3 µL/min/mg in data set [7]; 4.5 µL/min/mg in data set [8]; 16 µL/min/mg in data set [9]; 5.2 µL/min/mg in [10]; 2.2 µL/min/mg in data set [11]. Further, the IC50 in [5] was 25 nM.

`CP(C)(=O)c1cn2c(c(O)c1=O)C(=O)N1CCOC[C@H]1N2[C@@H]1c2ccccc2SCc2c1ccc(F)c2F` [Compound E-1c, (R)-12-((S)-7,8-difluoro-6,11-dihydrodibenzo[b,e]thiepin-11-yl)-9-(dimethylphosphoryl)-7-hydroxy-3,4,12,12a-tetrahydro-1H-[1,4]oxazino[3,4-c]pyrido[2,1-f][1,2,4]triazine-6,8-dione]: the EC50 is 68 nM with IFV A/PR/8/34 (H1N1); greater than 1000 nM in the data set with B/Florida/78/2015 (setting [12]); 133 nM with A/Weiss/43 (H1N1); greater than 1000 nM in the data set with B/Lee/40 (setting [13]); 207 nM in the data set on A/Hongkong/8/68 (H3N2); 58 nM in the data set with IFV A/WSN/33 (H1N1). In data set [6], this compound displayed an EC50 of 129 nM. In the data set “in vitro”, this compound came in with a CC50 greater than 100 µM.

Take `CCC(CC)O[C@@H]1C=C(C(=O)O)C[C@H](N)[C@H]1NC(C)=O` [Oseltamivir acid, reference compound]: the EC50 is greater than 100000 nM in the data set on IFV A/PR/8/34 (H1N1); 8480 nM in the data set on B/Florida/78/2015 (setting [12]); 476 nM in the data set with A/Weiss/43 (H1N1); 749 nM in the data set on B/Lee/40 (setting [13]); 20 nM with A/Hongkong/8/68 (H3N2); greater than 100000 nM in the data set on IFV A/WSN/33 (H1N1). Besides, the EC50 in data set [6] stood at 231 nM. Besides, the CC50 in the data set “in vitro” was greater than 100 µM.

Turning to `CCP(=O)(CC)c1cn2c(c(O)c1=O)C(=O)N1CCOC[C@H]1N2[C@@H]1c2ccccc2SCc2c1ccc(F)c2F` [Compound F-1, (R)-9-(Diethylphosphoryl)-12-((S)-7,8-Difluoro-6,11-Dihydrodibenzo[b,e]-Thiepin-11-yl)-7-Hydroxy-3,4,12,12a-Tetrahydro-1H-[1,4]Oxazino[3,4-c]Pyrido[2,1-f][1,2,4]Triazine-6,8-Dione], the EC50 in the data set with IFV A/PR/8/34 (H1N1) is greater than 100 nM; in the data set on B/Florida/78/2015 (setting [12]) it was greater than 1000 nM; in the data set on A/Weiss/43 (H1N1), 22 nM; in the data set on B/Lee/40 (setting [13]), greater than 1000 nM; with A/Hongkong/8/68 (H3N2) it was 310 nM; with IFV A/WSN/33 (H1N1), 57 nM. This compound also displayed an EC50 in [6] of 125 nM. In the data set “in vitro”, the CC50 was greater than 100 µM.

With `CP(C)(=O)c1cn2c(c(O)c1=O)C(=O)N1CCOCC1N2C1c2ccccc2SCc2c1ccc(F)c2F` (single isomer, unassigned) [Compound E-1a, 12-(7,8-difluoro-6,11-dihydrodibenzo[b,e]thiepin-11-yl)-9-(dimethylphosphoryl)-7-hydroxy-3,4,12,12a-tetrahydro-1H-[1,4]oxazino[3,4-c]pyrido[2,1-f][1,2,4]triazine-6,8-dione], the IC50 in [5] came to 31 nM.
